A short description of the series: gradient 5% acetonitrile 3 min, to 50% in 2 min, to 85% in 15 min, held 3 min, 100 µL/min. The following applies: column: Zorbax Extend-C18 2.1 x 50 mm; eluents: water / acetonitrile, 0.1% formic acid. An outline of the steps:
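Using water and acetonitrile that each contained 0.1% formic acid, mixtures of ~100 pure standards were separated at 100 μL/min on a Zorbax Extend-C18 column (2.1 × 50 mm, 1.8 μm). The HPLC fed a quadrupole time-of-flight mass spectrometer working in positive and negative ionization mode, with dead and dwell volumes of 40 μL and 900 μL. Data were acquired over 3 months. Retention time was read from computationally picked adduct peaks after manual inspection of each.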
`O=C(c1cc2cc(Br)ccc2oc1=O)N1CCN(c2ccccn2)CC1` showed an RP-LC retention time of 616 s.

With `COc1cccc(C2c3c(oc4ccc(C)cc4c3=O)C(=O)N2CCCN2CCOCC2)c1OC` (stereo not drawn), the RP-LC retention time stood at 808 s.

For the molecule `O=C(COc1ccc(F)cc1)N1[C@H]2CC[C@@H]1c1cnc(-c3ccc(F)cc3)nc1C2`, the RP-LC retention time was determined as 760 s.

In the case of `O=C(CCSc1ccccc1)N1CCN(c2ccc(-c3ccccn3)nn2)CC1`, the RP-LC retention time was 644 s.

The molecule `COc1ccc(C(=O)c2c(N)c(C#N)c3ccccn23)cc1` showed an RP-LC retention time of 777 s.

`CCn1nccc1C(=O)Nc1ccc2sc(C)nc2c1` registered an RP-LC retention time of 697 s.

Take `Cc1cccc(-c2noc(-c3ccc(N4CCN(Cc5ccc6c(c5)OCO6)CC4)nc3)n2)c1`: the RP-LC retention time is 848 s.

`CSc1cccc(NC(=O)N2CCN(Cc3nc4cccnc4n3-c3ccc(F)cc3)CC2)c1`: the RP-LC retention time stood at 711 s.

On to `CCn1ccc(C(=O)Nc2ccccc2C#N)n1`, for which the RP-LC retention time is 744 s.

On to `CC(NC(=O)c1nnc(-c2ccc(S(=O)(=O)N(C)C)cc2)o1)c1ccccc1` (stereo not drawn), for which the RP-LC retention time is 840 s.

`COc1cc(CNC(=O)c2nc(CCS(=O)(=O)c3ccc(F)cc3)no2)cc(OC)c1OC` came in with an RP-LC retention time of 788 s.

In turn, `CCN1CCCn2cc(S(=O)(=O)NCc3ccccc3C(F)(F)F)cc2C1=O` came in with an RP-LC retention time of 792 s.

Consider `CCCN1CCN(C(=O)C2Cc3cc(S(=O)(=O)N(CC)CC)ccc3N2C(C)=O)CC1` (stereo not drawn), for which the RP-LC retention time amounted to 610 s.

As for `CCn1c(=O)oc2cc(S(=O)(=O)N3CCC(CC(=O)N4c5ccccc5CC4C)CC3)ccc21` (stereo not drawn), the RP-LC retention time is 1010 s.

For the molecule `Cc1ccccc1NC(=O)NC1CCN(c2ccc(F)cc2)C1=O` (stereo not drawn), the RP-LC retention time was found to be 792 s.

In turn, `CCCN1C(=O)c2c(C(=O)NCCC(C)C)ncn2CC1(C)C(=O)NCc1ccc(F)cc1` (stereo not drawn) had an RP-LC retention time of 824 s.

Take `Cc1cccc(NC(=O)c2cnc3c(c2)c(=O)n(C)c(=O)n3-c2ccccc2)c1`: the RP-LC retention time is 926 s.

`CCC(c1cccs1)N1C(=O)[C@H]2CN(S(=O)(=O)c3ccc(C)cc3C)C[C@H]2C1=O` (stereo partly drawn): the RP-LC retention time was determined as 842 s.

For `CCCN(C(=O)Nc1ccccc1[N+](=O)[O-])c1nc(-c2ccccc2)cs1`, the RP-LC retention time was 1400 s.

In turn, `CCOc1ccccc1CNC(=O)C1CCCN(c2ccc(=O)n(-c3cccc(Cl)c3)n2)C1` (stereo not drawn) gave an RP-LC retention time of 968 s.

With `Cc1cc(NC(=O)C2CCCN(c3ccc(=O)n(-c4ccc(F)cc4)n3)C2)ccc1Br` (stereo not drawn), the RP-LC retention time stood at 899 s.

In the case of `CCC(C(=O)Nc1ccc(C)cc1)n1cnc2nc3c(cc2c1=O)CCCC3` (stereo not drawn), the RP-LC retention time came out at 756 s.

Regarding `O=C(NCCc1cccnc1)C1CN(S(=O)(=O)c2ccccc2)CC12CCCCC2` (stereo not drawn), the RP-LC retention time stood at 664 s.

With `C=CCN(CC=C)S(=O)(=O)c1ccc2nc(NC(=O)Cc3cccs3)sc2c1`, the RP-LC retention time came to 936 s.

`O=C(Nc1cccc(Cl)c1)Nc1ccc2nc3n(c(=O)c2c1)CCCC3` gave an RP-LC retention time of 723 s.

With `COc1ccc(CNC(=O)c2cn(C)c3ncccc23)cc1`, the RP-LC retention time stood at 711 s.

The molecule `C[C@]12C=CC(=O)C=C1[C@@H](F)C[C@H]1[C@@H]3CC[C@](O)(C(=O)CO)[C@@]3(C)C[C@H](O)[C@@]12F` displayed an RP-LC retention time of 660 s.

For the molecule `COCCn1cc(C(=O)Nc2ccc(C(C)=O)cc2)c2nn(-c3ccccc3)c(=O)c-2c1`, the RP-LC retention time was 865 s.

`Cc1c(S(=O)(=O)NCc2ccc3c(c2)CCN3C(=O)CC(C)C)cnn1C(F)F` came in with an RP-LC retention time of 911 s.

On to `CCOC(=O)c1c(C)oc2nc(C)nc(N3CCN(c4ccccc4OC)CC3)c12`, for which the RP-LC retention time amounted to 1020 s.

Take `CCNC(=O)C1CCN(S(=O)(=O)c2cc(-c3noc(CC)n3)cs2)CC1`: the RP-LC retention time was determined as 767 s.

The molecule `Cc1c(Cl)cccc1NC(=O)CN1C(=O)CCCc2cc(S(=O)(=O)N3CCCC3)ccc21` yielded an RP-LC retention time of 879 s.

As to `CCCn1cc(CNC(=O)CN2CCN(Cc3ccc(F)cc3)C2=O)c(C)n1`, the RP-LC retention time is 674 s.

With `CCc1ccc(NC(=O)N2CCCC(C)(C(=O)NCc3ccc(F)cc3)C2)cc1` (stereo not drawn), the RP-LC retention time came out at 972 s.

`CCc1noc(-c2ccc(-n3ncc(C(=O)N4CCOCC4)c3C)nc2)n1` had an RP-LC retention time of 752 s.

In the case of `CSc1ccc(NC(=O)C2CCN(c3cnc4nc(C)c(C)nc4c3)CC2)cc1`, the RP-LC retention time amounted to 767 s.

The molecule `CCOc1ccc(NC(=O)Nc2nccn(-c3cccc(Cl)c3)c2=O)cc1` came in with an RP-LC retention time of 1000 s.

For the molecule `CCCCOc1ccc(-c2nc(C3CC(=O)N(c4ccc(CC)cc4)C3)no2)cc1` (stereo not drawn), the RP-LC retention time amounted to 1390 s.

For `O=S(=O)(Nc1cccc(F)c1)c1ccc(-c2nnc(C3CCC3)o2)o1`, the RP-LC retention time was 856 s.

With `CCOC(=O)C1=C(CN2CCN(C)CC2)NC(=O)NC1c1cccc(OC)c1OC` (stereo not drawn), the RP-LC retention time is 595 s.

`COc1ccccc1NC(=O)N1CCC(c2nnc(-c3ccccc3OC)s2)CC1`: the RP-LC retention time was found to be 825 s.

The molecule `Cn1nnc2cc(CNC(=O)c3ccccn3)ccc21` came in with an RP-LC retention time of 651 s.

In turn, `Cc1ccccc1-c1nc(-c2ccc(S(=O)(=O)N3CCOCC3)cc2)no1` had an RP-LC retention time of 1170 s.

With `CCc1ccccc1NC(=O)c1ncn2c1C(=O)N(C1CC1)C(C)(C(=O)NC1CCCC1)C2` (stereo not drawn), the RP-LC retention time worked out at 828 s.

Take `Clc1ccc(-c2nc3ncccn3c2Nc2ccccc2)cc1`: the RP-LC retention time is 818 s.

As to `O=C(NCCN1CCOC(c2ccccc2)C1)c1ccc(Cl)c(Cl)c1` (stereo not drawn), the RP-LC retention time was found to be 610 s.

Turning to `CCOC(=O)c1c(S(=O)(=O)N2CCC(C(=O)Nc3ccc(F)cc3C)CC2)c(C)n(C)c1C`, the RP-LC retention time was 897 s.

For `Cc1ccc(NC(=O)N2CCCC2c2c(C)noc2C)c(Cl)c1` (stereo not drawn), the RP-LC retention time was 872 s.

Molecule `c1csc(-c2nc(-c3ccc4c(c3)ncn4CCN3CCCC3)no2)c1` gave an RP-LC retention time of 614 s.

Molecule `Cc1cc(NC(=O)CN2CCc3nc(NC(=O)C4CC4)sc3C2)no1` came in with an RP-LC retention time of 546 s.

In the case of `COc1cc(OC)c(OC)cc1CN(C)CCc1ccccn1`, the RP-LC retention time was found to be 593 s.

Turning to `Cc1ccccc1NC(=O)N(C)CCc1noc(COc2ccccc2F)n1`, the RP-LC retention time was determined as 926 s.

For `COc1ccc(NC(=O)Cn2cnc3c(sc4nc(-c5ccccc5)ccc43)c2=O)cc1Cl`, the RP-LC retention time was determined as 1030 s.

The molecule `Cc1ccc(Nc2c(-c3cccc(O)c3)nc3cnccn23)c(C)c1` yielded an RP-LC retention time of 750 s.

The molecule `FC1(F)CN[C@H](c2nc(-c3cccnc3)no2)C1` returned an RP-LC retention time of 621 s.

In turn, `CCOc1ccccc1-c1noc(-c2cn(C)c3ccc(F)cc3c2=O)n1` returned an RP-LC retention time of 833 s.

`Cc1ccc(NC(=O)Cn2c(C)nc3onc(C)c3c2=O)c(Cl)c1` came in with an RP-LC retention time of 835 s.

`NS(=O)(=O)c1ccc(CCNCc2ccc(-c3cc(Cl)ccc3Cl)o2)cc1` came in with an RP-LC retention time of 712 s.

`O=C(Oc1ccccc1)N1CCC(CNC(=O)C2(c3ccccc3)CCOCC2)CC1` returned an RP-LC retention time of 816 s.

The molecule `COC(=O)c1cc2c(=O)n(Cc3ccc(OC)cc3)ccc2nc1C` yielded an RP-LC retention time of 836 s.

Molecule `CCCOc1ccc(C2C(C(=O)N3CCOCC3)=C(C)NC3=C2C(=O)CCC3)cc1OC` (stereo not drawn) gave an RP-LC retention time of 964 s.

For `CN(C)[C@@H]1CN(C(=O)C2CCCCC2)CC[C@@H]1CO`, the RP-LC retention time was determined as 585 s.

For `O=C(Cc1ccccc1Cl)Nc1nnc(-c2ccc(OC(F)(F)F)cc2)o1`, the RP-LC retention time was 896 s.

The molecule `CC(C)(Oc1ccc(Cl)cc1)C(=O)NCCN1CCN(C(=O)c2cccs2)CC1` gave an RP-LC retention time of 592 s.

`Cc1cccn2c(=O)nc(SCC(=O)NCc3ccco3)nc12` yielded an RP-LC retention time of 610 s.

With `O=S(=O)(c1cc(F)cc(F)c1)N1CCCC(Cn2c(C3CC3)nc3cccnc32)C1` (stereo not drawn), the RP-LC retention time amounted to 806 s.

`COc1ccc(-c2nc3n(n2)C2(CCCCC2)[C@@H]2CCCC[C@@H]2N3C(=O)c2cccs2)cc1` registered an RP-LC retention time of 1270 s.

Turning to `COc1ccc(NC(=O)C2CCCN(S(=O)(=O)c3c[nH]c(C(=O)N4CCCCCC4)c3)C2)cc1` (stereo not drawn), the RP-LC retention time worked out at 842 s.

Take `COc1ccc(S(=O)(=O)Cc2nc(-c3cccc(C(F)(F)F)c3)no2)cc1`: the RP-LC retention time came to 1060 s.

On to `Cc1cccc(OCCc2noc(C3CN(Cc4ccc(C)s4)C3)n2)c1`, for which the RP-LC retention time was 761 s.

`COCCn1cc(CCNC(=O)Nc2ccc(Br)c(C)c2)c2cccnc21`: the RP-LC retention time was 821 s.

The molecule `CCNc1nc(C)cc(N2CCN(S(=O)(=O)c3ccc(OC)cc3)CC2)n1` had an RP-LC retention time of 677 s.

For `O=C(NCCc1ccc(Cl)cc1)C(=O)Nc1ccon1`, the RP-LC retention time is 772 s.

Molecule `CC(C)CNC(=O)NC1CCN(c2nc3cccnc3n(Cc3ccccc3)c2=O)CC1` showed an RP-LC retention time of 964 s.

The molecule `Cc1ccccc1Nc1c(-c2ccc(N(C)C)cc2)nc2ccccn12` had an RP-LC retention time of 767 s.

`Cc1ccsc1C(=O)NCC(=O)Nc1nc2ccccc2[nH]1`: the RP-LC retention time is 613 s.

`Cc1cc(N2CCN(C)CC2)nc2ccc(NC(=O)Nc3ccccc3Cl)cc12`: the RP-LC retention time worked out at 604 s.

Take `Cc1c(-c2noc(-c3ccccc3F)n2)nnn1Cc1ccc(F)cc1`: the RP-LC retention time worked out at 1030 s.

The record behind these values is the METLIN SMRT retention time set (Domingo-Almenara et al. 2019).
